Data on five compounds can be found in patent US5045544A, “N'-alkyl-spiro-isoquinoline-pyrrolidine tetrones and analogs thereof useful as aldose reductase inhibitors” (American Home Products Corporation, priority 1990, dated 1991).

The target of one experiment is T1, aldose reductase (Bos taurus, UniProt P16116).
T1 construct: preparation of the enzyme from bovine lens; from tissue; host or cells: bovine lens
Nature of the experiment: in vitro aldose reductase inhibition (modified Hayman and Kinoshita procedure, enzyme from bovine lens). Particulars: for inhibition at 10 µM: 10^-5 M; for inhibition at 1 µM: 10^-6 M. The format is biochemical. How it is done:
(§1) (c) The polyol determination was performed by a modification of the procedure of M. Kraml and L. Cosyns, Clin. Biochem., 2, 373 (1969). Only two minor reagent changes were made: (a) the rinsing mixture was an aqueous 5% (w/v) trichloroacetic acid solution and (b) the stock solution was prepared by dissolving 25 mg of dulcitol in 100 ml of an aqueous trichloroacetic acid solution. [N.B.: For each experiment the average value found in the tissue from rats fed the glucose diet was substracted from the individual values found in the corresponding tissue in galactose-fed rats to obtain the amount of polyol accumulated.] The aldose reductase inhibiting effects of the compounds of formula (I) were also tested by employing an in vitro testing procedure similar to that described by S. Hayman and J. H. Kinoshita, J. Biol. Chem., 240, 877 (1965). In the present case the procedure of Hayman and Kinoshita was modified in that the final chromatography step was omitted in the preparation of the enzyme from bovine lens.

The subject of another experiment is sciatic nerve. Nature of the experiment: dulcitol (galactitol) accumulation in the sciatic nerve of galactose-fed (galactosemic) rats. The format is in vivo, rat (Sprague-Dawley). Particulars: 4 days.
Text: (§2) The aldose reductase inhibiting property of the compounds of this invention and the utilization of the compounds in preventing, diminishing and alleviating diabetic complications are demonstrable in experiments using galactosemic rats, see Dvornik et al., Science, 182, 1146 (1973). Such experiments are exemplified hereinbelow after the listing of the following general comments pertaining to these experiments:
(§3) (a) Four or more groups of six male rats, 50-70 g, Sprague-Dawley strain, were used. The first group, the control group, was fed a mixture of laboratory chow (rodent Laboratory Chow, Purina) and glucose at 20% (w/w %) concentration. An untreated galactosemic group was fed a similar diet in which galactose was substituted for glucose. The third group was fed a diet prepared by mixing a given amount of the test compound with the galactose containing diet. The concentration of galactose in the diet of the treated groups was the same as that for the untreated galactosemic group.
(§4) (b) After four days, the animals were killed by euthanization. Both the lens and sciatic nerve were removed, weighed and stored frozen for polyol determination.
as §1
(§5) The figures under L, N, and D represent the percentage decrease of dulcitol accumulation in the tissues of the lens, sciatic nerve, and diaphragm, respectively, for treated rats as compared to untreated rats.

For a further experiment, the system named is diaphragm. Nature of the experiment: dulcitol (galactitol) accumulation in the diaphragm of galactose-fed (galactosemic) rats. It counts as in vivo, rat (Sprague-Dawley). The following applies: 4 days.
Text: as §2, §3, §4, §1, §5

For a further experiment, the system named is lens. As to the kind of experiment: dulcitol (galactitol) accumulation in the lens of galactose-fed (galactosemic) rats. It counts as in vivo, rat (Sprague-Dawley). The following applies: 10.2 mg/kg in diet, 4 days.
Text: as §2, §3, §4
(c) The polyol determination was performed by a modification of the procedure of M. Kraml and L. Cosyns, Clin. Biochem., 2, 373 (1969). […]

By inhibition is commonly meant the percentage by which the read-out fell short of the control. Low readings indicate a weak effect, high ones a strong effect.

Consider `CCN1C(=O)CC2(C1=O)C(=O)N(Cc1ccc(Br)cc1F)C(=O)c1ccc(F)cc12` (centres unmarked) [R1=F, R4=CH2 CH3, 2-[(4-bromo-2-fluorophenyl)methyl]-1'-ethyl-6-fluorospiro[isoquinoline-4(1H),3'-pyrrolidine]-1,2',3,5'(2H)-tetrone], for which, at aldose reductase, the inhibition at 10 µM amounted to 0%. Moreover, the “% lowering dulcitol accumulation in vivo, % N” value with sciatic nerve (0.5 mg/kg in diet) is 19%; in the experiment on sciatic nerve (1.0 mg/kg in diet), 74%. Further, the “% lowering dulcitol accumulation in vivo, % D” value in the experiment on diaphragm (0.5 mg/kg in diet) worked out at 65%; with diaphragm (1.0 mg/kg in diet), 84%.

`CN1C(=O)CC2(C1=O)C(=O)N(Cc1ccc(Br)cc1F)C(=O)c1ccccc12` (centres unmarked) [R1=H, R4=CH3, 2-[(4-bromo-2-fluorophenyl)methyl]-1'-methylspiro[isoquinoline-4(1H), 3'-pyrrolidine]-1,2',3,5'(2H)-tetrone] had an inhibition at 10 µM on aldose reductase of 0%. Besides, the entries for the “% lowering dulcitol accumulation in vivo, % N” value in the experiment on sciatic nerve (0.5 mg/kg in diet), in the experiment with sciatic nerve (1.1 mg/kg in diet) and in the experiment with sciatic nerve (10.2 mg/kg in diet) were 50%, 76% and 95%, respectively. Also, the “% lowering dulcitol accumulation in vivo, % D” value with diaphragm (0.5 mg/kg in diet) is reported as 61%; in the experiment on diaphragm (1.1 mg/kg in diet), 75%; in the experiment on diaphragm (10.2 mg/kg in diet) it was 94%. In the experiment on lens, the “% lowering dulcitol accumulation in vivo, % L” value is listed as 31%.

For the compound `CN1C(=O)CC2(C1=O)C(=O)N(Cc1nc3cc(C(F)(F)F)ccc3s1)C(=O)c1ccccc12` (centres unmarked) [R1=H, R4=CH3, R5=CF3, 2-[[5-(trifluoromethyl)-2-benzothiazolyl]methyl]-1'-methylspiro[isoquinoline-4(1H),3'-pyrrolidine]-1,2',3,5'(2H)-tetrone], 1 µM produced 0% inhibition against aldose reductase. In addition, the “% Lowering Galactitol Accumulation In Vivo, (%) N” value in the experiment with sciatic nerve (9.5 mg/kg/day in diet) was found to be 82%. For the same compound, the “% Lowering Galactitol Accumulation In Vivo, (%) D” value in the experiment on diaphragm (9.5 mg/kg/day in diet) was determined as 100%.

On to `CCN1C(=O)CC2(C1=O)C(=O)N(Cc1nc3cc(C(F)(F)F)ccc3s1)C(=O)c1ccc(F)cc12` (centres unmarked) [R1=F, R4=C2 H5, R5=CF3, 1'-ethyl-6-fluoro-2-[[5-(trifluoromethyl)-2-benzothiazolyl]methyl]spiro[isoquinoline-4(1H),3'-pyrrolidine]-1,2',3,5'(2H)-tetrone], for which the inhibition at 1 µM against aldose reductase worked out at 0%. The “% Lowering Galactitol Accumulation In Vivo, (%) D” value with diaphragm (10 mg/kg/day in diet) turned out to be 59%.

As for `CCN1C(=O)CC2(C1=O)C(=O)N(Cc1ccc(Br)cc1F)C(=O)c1ccccc12` (centres unmarked) [R1=H, R4=CH2 CH3, 2-[(4-bromo-2-fluorophenyl)methyl]-1'-ethylspiro[isoquinoline-4(1H), 3'-pyrrolidine]-1,2',3,5'(2H)-tetrone], the inhibition at 10 µM against aldose reductase is 0%. Also, the “% lowering dulcitol accumulation in vivo, % N” value with sciatic nerve (0.5 mg/kg in diet) stood at 37%; in the experiment with sciatic nerve (0.9 mg/kg in diet), 65%. Besides, the entries for the “% lowering dulcitol accumulation in vivo, % D” value in the experiment with diaphragm (0.5 mg/kg in diet) and in the experiment with diaphragm (0.9 mg/kg in diet) were 56% and 73%, respectively.
